Assay results published in patent US20260356860A1, “2-SUBSTITUTED 3,4A,5,7,8,8A-HEXAHYDRO-4H-THIOPYRANO[4,3-DJPYRIMIDIN-4-ONES FOR WOUND TREATMENT” (priority 2022, published 2026).

Assays:
new porcine skin = assay: Energy peak of healed wound; assay type: in vivo; conditions: day 21; for Energy Peak / Energy Peak, Mean: topical
Procedure: (§1) Additional tests were performed including elasticity (Table 12); max force (Table 13); tensile strength (strain) (Table 14); energy peak (Table 15); rete-ridge formation; and collagen organization (plane polarized light) (FIG. 24) of the healed wound sites, described as follows.
A is saline (control), B is serum formulation (vehicle), C is GO-HA (vehicle), D is Compound 1; E is Compound 1+GO-HA; F is Compound 8; G is Compound 8+GO-HA; H is Compound 10; and J is Compound 10+GO-HA.
Energy Peak (N*mm) is the maximum force applied to a material over time. All compounds of Formula (I) tested with or without GO-HA ranged from 5% to 41% improvement in energy peak compared to the saline control. […] The vehicle, GO-HA, provided a 61% improvement in energy peak over the saline control.

[1] = tested on: E. coli 0157:H7 (derived from ATCC ® 12900 ™); assay: Bacteriostasis, log reduction; assay type: cell-based; conditions: E. coli 0157:H7 ATCC 12900
[2] = tested on: S. maltophilia (derived from ATCC ® 13637 ™); assay: Bacteriostasis, log reduction; assay type: cell-based; conditions: S. maltophilia ATCC 13637
[3] = tested on: S. aureus (derived from ATCC ® 6538 ™); assay: Bacteriostasis, log reduction; assay type: cell-based; conditions: S. aureus ATCC 6538
[4] = tested on: E. faecalis (derived from ATCC ® 19433 ™); assay: Bacteriostasis, log reduction; assay type: cell-based; conditions: E. faecalis ATCC 19433
[5] = tested on: S. aureus (MRSA) (derived from ATCC ® 33593 ™); assay: Bacteriostasis, log reduction; assay type: cell-based; conditions: for Average result / Log Reduction / Log Value: S. aureus (MRSA) ATCC 33593
[6] = tested on: full thickness excisional wounds; assay: Rete ridge formation (full thickness wound healing study); assay type: in vivo, Yucatan Miniature Swine; conditions: rete ridge/mm
Procedure: A 21-day full thickness open excisional wound healing study was conducted on Yucatan™ Miniature Swine (Sinclair BioResources, Auxvasse, Missouri, USA) to evaluate the efficacy of healing and local tissue reaction of compounds of Formula (I). Compounds and controls were topically administered on full thickness open excisional wounds once every other day (total 11 doses).
as §1
Improved rete ridge formation is described as epithelial extensions that project into the underlying connective tissue in both skin and mucous membrances—improved rete ridge formation is a sign of tissue regeneration rather than fibrosis/scarring (reduced rete ridge formation).

Compound	Energy Peak (new porcine skin; individual value 1) [N*mm]	Energy Peak (new porcine skin; individual value 2) [N*mm]	Average result ([3]; 24 h)	Log Reduction ([3]; 24 h)	Log Value ([3]; 24 h)	Average result ([3]; 72 h)	Log Reduction ([3]; 72 h)	Log Value ([3]; 72 h)	Average result ([4]; 24 h)	Log Reduction ([4]; 24 h)	Log Value ([4]; 24 h)	Average result ([4]; 72 h)	Log Reduction ([4]; 72 h)	Log Value ([4]; 72 h)	Average result ([5]; 24 h)	Log Reduction ([5]; 24 h)	Log Value ([5]; 24 h)	Average result ([5]; 72 h)	Log Reduction ([5]; 72 h)	Log Value ([5]; 72 h)	also measured
O=c1[nH]c(-c2ccc(B(O)O)cc2)nc2c1CSCC2 [Compound 1, (4-(4-oxo-3,5,7,8-tetrahydro-4H-thiopyrano[4,3-d]pyrimidin-2-yl)phenyl)boronic acid]	3084.657	2356.435	8.7 × 10^4	0.4	4.9	<800	>2.4	<2.9	1.1 × 10^3	1.8	3.0	1.1 × 10^4	0.7	4.1	9.3 × 10^3	0.6	4.0	4.0 × 10^4	No	4.6	Energy Peak (new porcine skin; individual value 3): 1240.242 N*mm; Energy Peak (new porcine skin; individual value 4): 1885.046 N*mm; Energy Peak, Mean (new porcine skin): 2141.595 N*mm; Average result ([1]; 24 h): 5.5 × 10^3; Log Reduction ([1]; 24 h): 0.5; Log Value ([1]; 24 h): 3.7; Average result ([1]; 72 h): <200; Log Reduction ([1]; 72 h): >1.9; Log Value ([1]; 72 h): <2.3; Average result ([2]; 24 h): <200; Log Reduction ([2]; 24 h): >2.8; Log Value ([2]; 24 h): <2.3; Average result ([2]; 72 h): <200; Log Reduction ([2]; 72 h): >2.8; Log Value ([2]; 72 h): <2.3; effect on MRSA growth ([5]; 72 h, test 1): did not affect MRSA growth
O=c1[nH]c(-c2ccc(-c3ccc(Br)nc3)cc2)nc2c1CSCC2 [Compound 7, 2-(4-(6-bromopyridin-3-yl)phenyl)-3,5,7,8-tetrahydro-4H-thiopyrano [4,3-d]pyrimidin-4-one]			7.3 × 10^2	2.4	2.9	<200	>3.0	<2.3	9.3 × 10^5	No	6.0	6.9 × 10^5	No	5.8	2.7 × 10^3	1.2	3.4	1.4 × 10^5	No	5.1	rete ridge formation compared to the saline control [6]: improved wound healing compared to the saline control (rete ridge/mm)
CC(C)(OCCO)c1ccc(-c2nc3c(c(=O)[nH]2)CSCC3)cc1 [Compound 8, 2-(4-(2-(2-hydroxyethoxy)propan-2-yl)phenyl)-3,5,7,8-tetrahydro-4H-thiopyrano[4,3-d]pyrimidin-4-one]	2946.121	5124.987	5.4 × 10^4	0.6	4.7	<7.4 × 10^3	>1.4	<3.9	3.4 × 10^5	No	5.5	6.5 × 10^4	No	4.8	3.3 × 10^6	No	6.5	1.0 × 10^6	No	6.0	improvement in energy peak compared to the saline control (new porcine skin): 29%; Energy Peak (new porcine skin; individual value 3): 2632.780 N*mm; Energy Peak (new porcine skin; individual value 4): 2286.458 N*mm; Energy Peak (new porcine skin; individual value 5): 1294.14 N*mm; Energy Peak, Mean (new porcine skin): 2856.897 N*mm; rete ridge formation compared to the saline control [6]: improved wound healing compared to the saline control (rete ridge/mm)
O=c1[nH]c(-c2ccc(-c3ccc(B(O)O)cc3)cc2)nc2c1CSCC2 [Compound 10, (4′-(4-oxo-3,5,7,8-tetrahydro-4H-thiopyrano[4,3-d]pyrimidin-2-yl)-[1,1′-biphenyl]-4-yl)boronic acid]	3149.241	3038.880	1.5 × 10^5	0.1	5.2	6.7 × 10^3	1.5	3.8	2.9 × 10^4	0.3	4.5	<200	>2.5	<2.3	3.1 × 10^4	0.1	4.5	2.7 × 10^3	1.2	3.4	improvement in energy peak compared to the saline control (new porcine skin): 41%; Energy Peak (new porcine skin; individual value 3): 2645.076 N*mm; Energy Peak (new porcine skin; individual value 4): 2623.098 N*mm; Energy Peak, Mean (new porcine skin): 2864.074 N*mm; Average result ([1]; 24 h): <200; Log Reduction ([1]; 24 h): >1.9; Log Value ([1]; 24 h): <2.3; Average result ([1]; 72 h): <200; Log Reduction ([1]; 72 h): >1.9; Log Value ([1]; 72 h): <2.3; Average result ([2]; 24 h): <200; Log Reduction ([2]; 24 h): >2.8; Log Value ([2]; 24 h): <2.3; Average result ([2]; 72 h): <200; Log Reduction ([2]; 72 h): >2.8; Log Value ([2]; 72 h): <2.3
COC(=O)NCCOC(C)(C)c1ccc(-c2nc3c(c(=O)[nH]2)CSCC3)cc1 [Compound 18, methyl (2-((2-(4-(4-oxo-3,5,7,8-tetrahydro-4H-thiopyrano[4,3-d]pyrimidin-2-yl)phenyl)propan-2-yl)oxy)ethyl)carbamate]			4.7 × 10^4	0.5	4.7	9.3 × 10^2	2.2	3.0	2.7 × 10^5	No	5.4	1.9 × 10^5	No	5.3	1.5 × 10^3	1.6	3.2	<200	>2.5	<2.3	Average result ([1]; 24 h): <200; Log Reduction ([1]; 24 h): >1.9; Log Value ([1]; 24 h): <2.3; Average result ([1]; 72 h): <200; Log Reduction ([1]; 72 h): >1.9; Log Value ([1]; 72 h): <2.3; Average result ([2]; 24 h): <200; Log Reduction ([2]; 24 h): >2.8; Log Value ([2]; 24 h): <2.3; Average result ([2]; 72 h): <200; Log Reduction ([2]; 72 h): >2.8; Log Value ([2]; 72 h): <2.3
